Experimental data: US6242476A, “Leukotriene A4 hydrolase inhibitors” (Santen Pharmaceutical Co., Ltd., priority 1997, dated 2001)

Target: T1, LTA4 hydrolase (Cavia porcellus, UniProt P19602)
T1 construct: prepared by extracting from guinea pig lung without purification; from tissue; host or cells: lung of Hartley guinea pig
T1 sequence (P19602 1-611): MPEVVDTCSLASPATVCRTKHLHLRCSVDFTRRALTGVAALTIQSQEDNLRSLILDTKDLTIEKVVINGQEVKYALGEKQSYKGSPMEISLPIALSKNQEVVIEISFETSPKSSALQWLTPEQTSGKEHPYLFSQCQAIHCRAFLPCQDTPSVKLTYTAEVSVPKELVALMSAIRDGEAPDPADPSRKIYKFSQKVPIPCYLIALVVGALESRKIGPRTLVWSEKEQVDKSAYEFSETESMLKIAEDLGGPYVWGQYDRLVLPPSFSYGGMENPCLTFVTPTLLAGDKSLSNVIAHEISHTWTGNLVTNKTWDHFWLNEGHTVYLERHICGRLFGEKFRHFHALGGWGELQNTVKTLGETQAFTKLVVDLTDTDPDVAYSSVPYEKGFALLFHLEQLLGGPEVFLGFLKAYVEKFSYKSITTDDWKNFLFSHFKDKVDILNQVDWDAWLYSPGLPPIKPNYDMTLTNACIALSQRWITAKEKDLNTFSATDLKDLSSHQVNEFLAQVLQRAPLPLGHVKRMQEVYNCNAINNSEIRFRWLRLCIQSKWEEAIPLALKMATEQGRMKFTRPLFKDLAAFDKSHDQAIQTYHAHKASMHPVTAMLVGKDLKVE
Assay: Inhibition of LTA4 hydrolase: LTB4 produced from LTA4 by enzyme preparation from guinea pig lung (HPLC)
Format: biochemical
Conditions: guinea pig lung enzyme preparation 0.4-0.6 mg protein; HEPES 50 mM, pH 7.8; LTA4 63 μM; DTT 3 mM; 37° C., one minute; read-out: IC50 (concentration of the compounds required to inhibit LTA4 hydrolase activity by 50%)
Protocol: Izumi et al. had reported a method of measuring LTA4 hydrolase activity by measuring an amount of LTB4 produced by an enzymatic reaction using LTA4 as a substrate (Biochem. Biophys. Res. Commun., 135, 139-145 (1986)). Effects of the present compounds on LTA4 hydrolase were examined according to the method described in the literature.
An enzyme preparation used in this pharmacological test was prepared by extracting from guinea pig lung without purification according to the method of Izumi et al. (Biochem. Biophys. Res. Commun., 135, 139-145 (1986)) and the method of Evans et al. (Biochem. Biophys. Acta, 840, 43-50 (1985)). The experimental method is as follows:
Lungs were excised from a Hartley guinea pig (body weight: 330 g). The lungs were homogenized in phosphoric acid buffer (50 mM, pH 7.4, containing 1 mM ethylenediaminetetraacetic acid (EDTA) and 1 mM dithiothreitol (DTT) having weight three times that of the lungs under ice-cooling. The homogenate was centrifuged at low speed (800×g) for 20 minutes, centrifuged at high speed (10,000×g) for 20 minutes and ultracentrifuged (100,000×g) for 60 minutes to give a supernatant. The supernatant was brought to 40% saturation by adding a saturated aqueous ammonium sulfate solution (pH 7.0-7.2, containing 1 mM DTT) dropwise under ice-cooling and centrifuged at high speed (10,000×g) for 20 minutes. The resulting supernatant was brought to 70% saturation by adding a saturated aqueous ammonium sulfate solution (pH 7.0-7.2, containing 1 mM DTT) dropwise and centrifuged at high speed (10,000×g) for 20 minutes. The obtained pellet was dissolved in 2 ml of Tris-acetic acid buffer (20 mM, pH 7.8, containing 1 mM DTT) and dialyzed in 2 liters of the solution to give the enzyme preparation.
LTA4 used, which is the substrate, was prepared by hydrolyzing LTA4 methyl ester and dissolved in ethanol.
In order to examine effects of the test compounds on the enzyme preparation, reactions were performed under the following condition using mixed solutions consisting of the composition shown in Table 1. […]
HEPES buffer 50 mM, pH 7.8
Enzyme preparation 0.4-0.6 mg protein
DTT aqueous solution 3 mM
Test compounds 10^-8 -10^-3 M
The above-mentioned solution (50 μl) was incubated at 37° C. for one minute. To the reaction mixture was added 100 μl of a mixed liquid of acetonitrile-ethanol-acetic acid (150:50:3, volume ratio) under ice-cooling. The mixture was allowed to stand at -20° C. for 30 minutes and centrifuged at high speed (10,000×g) for five minutes to give a supernatant. An amount of LTB4 produced in the supernatant was measured by high-speed liquid chromatography.
The degree of the inhibitory effect of each test compound on LTA4 hydrolase is expressed by the inhibition rate calculated by the following equation. [formula]
A: amount of LTB4 formed in the absence of the test compound
B: amount of LTB4 formed in the presence of the test compound
The results are represented in concentration of the compounds required to inhibit LTA4 hydrolase activity by 50%, i.e., IC50.

Row | SMILES | IC50 [nM]
1 | Cc1ccccc1CS[C@H]1C[C@@H](C(=O)O)N(C(=O)[C@H](C)CS)C1 [Compound a, 1-[(2S)-3-mercapto-2-methylpropionyl]-(4S)-4-(2-methylbenzylthio)-L-proline] | 840
2 | CC(C)c1ccc(CO[C@@H]2C[C@@H](C(=O)O)N(C(=O)[C@H](C)CS)C2)cc1 [Compound e, (4R)-4-(4-isopropylbenzyloxy)-1-[(2S)-3-mercapto-2-methylpropionyl]-L-proline] | 800
3 | CC(C)c1ccc(CCS[C@H]2C[C@@H](C(=O)O)N(C(=O)[C@H](C)CS)C2)cc1 [Compound c, (4S)-4-(4-isopropylphenyethylthio)-1-[(2S)-3-mercapto-2-methylpropionyl]-L-proline] | 790
4 | CC(C)c1ccc(CS[C@@H]2C[C@@H](C(=O)O)N(C(=O)[C@H](C)CS)C2)cc1 [Compound d, (4R)-4-(4-isopropylbenzylthio)-1-[(2S)-3-mercapto-2-methylpropionyl]-L-proline] | 290

The next molecules have a lower IC50 than those just listed; values first:

Row | IC50 [nM] | SMILES
5 | 120 | CSc1ccc(CS[C@H]2C[C@@H](C(=O)O)N(C(=O)[C@H](C)CS)C2)cc1 [Compound g, 1-[(2S)-3-mercapto-2-methylpropionyl]-(4S)-4-[4-(methylthio)benzylthio]-L-proline]
6 | 52 | CC(C)c1ccc(CS[C@H]2C[C@@H](C(=O)O)N(C(=O)[C@H](C)CS)C2)cc1 [Compound b, (4S)-4-(4-isopropylbenzylthio)-1-[(2S)-3-mercapto-2-methylpropionyl]-L-proline]
7 | 34 | C[C@H](CS)C(=O)N1C[C@@H](SCc2ccc(C3CCCCC3)cc2)C[C@H]1C(=O)O [Compound h, (4S)-4-(4-cyclohexylbenzylthio)-1-[(2S)-3-mercapto-2-methylpropionyl]-L-proline]
8 | 31 | CCCCc1ccc(CS[C@H]2C[C@@H](C(=O)O)N(C(=O)[C@H](C)CS)C2)cc1 [Compound f, (4S)-4-(4-butylbenzylthio)-1-[(2S)-3-mercapto-2-methylpropionyl]-L-proline]
